This is an account of results in ChEMBL document CHEMBL4396956 (Bioorg Med Chem, 2019).

Calls of active or inactive are those of the source. The rule behind the calls is not given here.

The term EC50 denotes the concentration needed to bring the measured effect to its halfway point.

The target in experiment [1] is Glucagon-like peptide 1 receptor (Homo sapiens, UniProt P43220). Description: Agonist activity at human GLP1 receptor expressed in HEK293 cells assessed as induction of cAMP levels after 20 mins by time-resolved fluorescence analysis. The format is functional, cell-based. On the technique in general: Cyclic AMP is a second messenger, typically raised through Gs and lowered through Gi signalling.
Glucagon-like peptide 1 receptor, sequence (P43220 whole entry): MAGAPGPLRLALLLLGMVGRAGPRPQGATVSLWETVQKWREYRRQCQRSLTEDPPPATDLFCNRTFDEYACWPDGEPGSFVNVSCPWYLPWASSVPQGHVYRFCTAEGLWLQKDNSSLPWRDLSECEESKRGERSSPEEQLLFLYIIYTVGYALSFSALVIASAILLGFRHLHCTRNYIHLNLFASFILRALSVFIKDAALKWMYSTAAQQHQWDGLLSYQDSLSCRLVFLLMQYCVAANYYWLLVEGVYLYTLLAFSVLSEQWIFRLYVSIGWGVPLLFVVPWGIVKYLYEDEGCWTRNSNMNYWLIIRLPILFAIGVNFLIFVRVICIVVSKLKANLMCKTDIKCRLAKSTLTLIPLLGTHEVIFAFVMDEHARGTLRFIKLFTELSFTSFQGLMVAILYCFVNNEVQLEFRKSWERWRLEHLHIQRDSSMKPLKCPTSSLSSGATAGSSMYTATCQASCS

The subject of experiment [2] is Rattus norvegicus. Description: Antidiabetic activity in Sprague-Dawley rat assessed as increase in insulin level at 25 nmol/kg, ip pretreated for 30 mins followed by glucose challenge and measured after 15 to 60 mins by ELISA method. The format is functional.
Experiment [3] deals with Rattus norvegicus. Description: Antidiabetic activity in Sprague-Dawley rat assessed as decrease in glucose level at 25 nmol/kg, ip pretreated for 30 mins followed by glucose challenge and measured up to 180 mins by OGTT relative to control. The format is functional, organism-based.
In another experiment the test system is Mus musculus. Description: Antidiabetic activity in STZ-induced diabetic Kunming mouse assessed as hypoglycemic time duration for glycemia under 8.35 mmol/L at 25 nmol/kg, ip pretreated with STZ for 5 consecutive days and measured up to 48 hrs. The format is functional.

For `CC[C@H](C)[C@H](NC(=O)[C@H](Cc1ccc(O)cc1)NC(=O)[C@H](CC(C)C)NC(=O)[C@H](CCCNC(=N)N)NC(=O)[C@@H](NC(=O)[C@H](C)NC(=O)[C@H](CCC(=O)O)NC(=O)[C@H](CCC(=O)O)NC(=O)[C@H](CCC(=O)O)NC(=O)[C@H](CCSC)NC(=O)[C@H](CCC(N)=O)NC(=O)[C@H](CCCCN)NC(=O)[C@H](CO)NC(=O)[C@H](CC(C)C)NC(=O)[C@H](CC(=O)O)NC(=O)[C@H](CO)NC(=O)[C@@H](NC(=O)[C@H](Cc1ccccc1)NC(=O)[C@@H](NC(=O)CNC(=O)[C@H](CCC(=O)O)NC(=O)CNC(=O)[C@@H](N)Cc1cnc[nH]1)[C@@H](C)O)[C@@H](C)O)C(C)C)C(=O)N[C@@H](CCC(N)=O)C(=O)N[C@@H](Cc1c[nH]c2ccccc12)C(=O)N[C@@H](CC(C)C)C(=O)N[C@@H](CCCCN)C(=O)N[C@@H](CCC(=O)O)C(=O)NCC(=O)NCC(=O)N1CCC[C@H]1C(=O)N[C@@H](CO)C(=O)N[C@@H](CO)C(=O)NCC(=O)N[C@@H](CCCNC(=N)N)C(=O)N1CCC[C@H]1C(=O)N1CCC[C@H]1C(=O)N1CCC[C@H]1C(=O)N[C@@H](CO)C(=O)N[C@@H](CSC1CC(=O)N(CCCCCCCCCCCC(=O)N[C@@H](CCC(=O)O)C(=O)O)C1=O)C(N)=O` (stereo not given in full), the concentration for a half-maximal effect (EC50) in experiment [1] is 0.0202 nM.
Turning to `CC[C@H](C)[C@H](NC(=O)[C@H](Cc1ccc(O)cc1)NC(=O)[C@H](CC(C)C)NC(=O)[C@H](CCCNC(=N)N)NC(=O)[C@@H](NC(=O)[C@H](C)NC(=O)[C@H](CCC(=O)O)NC(=O)[C@H](CCC(=O)O)NC(=O)[C@H](CCC(=O)O)NC(=O)[C@H](CCSC)NC(=O)[C@H](CCC(N)=O)NC(=O)[C@H](CSC1CC(=O)N(CCCCCCCCCCCC(=O)N[C@@H](CCC(=O)O)C(=O)O)C1=O)NC(=O)[C@H](CO)NC(=O)[C@H](CC(C)C)NC(=O)[C@H](CC(=O)O)NC(=O)[C@H](CO)NC(=O)[C@@H](NC(=O)[C@H](Cc1ccccc1)NC(=O)[C@@H](NC(=O)CNC(=O)[C@H](CCC(=O)O)NC(=O)CNC(=O)[C@@H](N)Cc1cnc[nH]1)[C@@H](C)O)[C@@H](C)O)C(C)C)C(=O)N[C@@H](CCC(N)=O)C(=O)N[C@@H](Cc1c[nH]c2ccccc12)C(=O)N[C@@H](CC(C)C)C(=O)N[C@@H](CCCCN)C(=O)N[C@@H](CCC(=O)O)C(=O)NCC(=O)NCC(=O)N1CCC[C@H]1C(=O)N[C@@H](CO)C(=O)N[C@@H](CO)C(=O)NCC(=O)N[C@@H](CCCNC(=N)N)C(=O)N1CCC[C@H]1C(=O)N1CCC[C@H]1C(=O)N1CCC[C@H]1C(=O)N[C@@H](CO)C(N)=O` (stereo not given in full), the EC50 in experiment [1] turned out to be 0.0182 nM.
On to `CCCCCCCCCCCCCCCC(=O)N[C@@H](CCC(=O)NCCCC[C@H](NC(=O)[C@H](C)NC(=O)[C@H](C)NC(=O)[C@H](CCC(N)=O)NC(=O)CNC(=O)[C@H](CCC(=O)O)NC(=O)[C@H](CC(C)C)NC(=O)[C@H](Cc1ccc(O)cc1)NC(=O)[C@H](CO)NC(=O)[C@H](CO)NC(=O)[C@@H](NC(=O)[C@H](CC(=O)O)NC(=O)[C@H](CO)NC(=O)[C@@H](NC(=O)[C@H](Cc1ccccc1)NC(=O)[C@@H](NC(=O)CNC(=O)[C@H](CCC(=O)O)NC(=O)[C@H](C)NC(=O)[C@@H](N)Cc1cnc[nH]1)[C@@H](C)O)[C@@H](C)O)C(C)C)C(=O)N[C@@H](CCC(=O)O)C(=O)N[C@@H](Cc1ccccc1)C(=O)N[C@H](C(=O)N[C@@H](C)C(=O)N[C@@H](Cc1c[nH]c2ccccc12)C(=O)N[C@@H](CC(C)C)C(=O)N[C@H](C(=O)N[C@@H](CCCNC(=N)N)C(=O)NCC(=O)N[C@@H](CCCNC(=N)N)C(=O)NCC(=O)O)C(C)C)[C@@H](C)CC)C(=O)O` [LIRAGLUTIDE], for which the Activity in the experiment on Rattus norvegicus [2] is on record as 411 pmol/L. The outcome in the experiment with Rattus norvegicus [3] was Active. The Time in the experiment with Mus musculus amounted to 13.1 h.
